Data: patent publication US5817640A (Gensia Pharmaceuticals, priority 1995, dated 1998)
Several values for one entry are separate records, joined by “and”; a condition that tells them apart may be missing. Equal entries are not always repeated. Entries after “also recorded” stand apart in the source; their conditions may differ.

What was measured:
[1] = Discoloration of liquid formulation during storage; format: physicochemical
[2] = system: patients undergoing coronary artery bypass graft (CABG) surgery; assay: Myocardial ischemia by continuous Holter ECG and TEE (Phase 2); format: in vivo, human; details: for Mean duration of postbypass ECG ischemic episodes: patients with events, placebo 175 ± 156, p=0.04; for Incidence of prebypass ECG ischemia: placebo 0%; for Incidence of ECG ischemia (postbypass) / Incidence of preoperative (baseline) ECG ischemia: placebo 18%; for Incidence of ECG ischemia (postbypass): p=0.42; for Incidence of prebypass TEE ischemia: placebo 19%; for Incidence of prebypass TEE ischemia / Ischemic minutes per hour monitored, postbypass: p=0.22; for Incidence of postbypass TEE ischemia: placebo 29%, p=0.86; for Ischemic minutes per hour monitored, postbypass: placebo 35 ± 14; for Mean area under the S-T curve (AUC), postbypass ECG ischemia: placebo -258 ± 317, p=0.24; for Incidence of preoperative (baseline) ECG ischemia: before drug; for Mean area under the S-T segment: post-bypass, placebo 35±14
Protocol: (§1) During surgery, anesthesia was maintained by continuous infusion of fentanyl and midazolam. Routine clinical parameters were recorded using standard operating room monitoring equipment. Continuous 2-lead Holter ECG and TEE data were recorded. Standard surgical procedures (e.g., aorta cross-clamping, crystalloid cardioplegia, cardio-pulmonary bypass, hypothermia) were used. Anastomoses were constructed, aorta cross-clamp removed and patients were discontinued from bypass when body temperature was 37° C. The quality of anastomosis was judged by the surgeon. Difficulty in weaning from bypass was judged by need for one or more of the following: pacemaker, return to bypass, balloon pump or vasopressor administration. Hemodynamic measurements, including heart rate, arterial blood pressure, pulmonary capillary wedge pressure and cardiac output, were recorded before sternotomy, 15 and 30 min after bypass and upon chest closure. Radial artery and pulmonary artery pressures, myocardial and whole body temperature, O2 saturation, end-tidal CO2 and arterial blood gases were measured, and ECG recordings were obtained as clinically indicated. Hemodynamic variables (blood pressure, heart rate, pulmonary capillary wedge pressure) were controlled within 20% of baseline using prescribed regimens.
(§2) A twelve-lead ECG was obtained on arrival in the intensive care unit and during post-operative days 1, 2, 3 and at hospital discharge. Creatinine phosphokinase MB band (CK-MB) was obtained every 8 hours for 48 hours and when indicated. Radio-nuclide ventriculography for ejection fraction and wall motion score was done about 14 days post-operation and as close to hospital discharge as possible. Other tests and measurements (e.g., chest x-ray, pulmonary artery wedge pressure (PCWP) were performed when clinically indicated for diagnosis or evaluation of myocardial infarction, or congestive heart failure. Timing and dose of all cardiovascular medications within 48 hours after surgery were recorded. The total dose of all analgesics during the 24-hour post-operative period was recorded. Fluid intake and output (e.g., blood replacement and urine output) were recorded for 48 hours. The type and duration of inotropic support and antiarrhythmic intervention required were recorded through 24 hours after surgery. Two-channel Holter recordings were obtained during 3 periods, the eight hours prior to intubation, from intubation through the end of surgery, and for an additional 24-48 hours after surgery.
The evaluation of Holter tapes and echo videotapes was performed centrally by two independent blinded observers; if there was disagreement between the two, a third observer was used to "break the tie." The same observers were used throughout the study.
5. Ischemic Events--TEE. Ischemic event data were evaluated during two time periods--pre-bypass and post-bypass, using the following analysis:
a) The number of patients with ischemic events was compared across the groups using Fisher's exact test. This analysis also included pre-post changes and pre- and post-combined.
b) For patients with events, analysis of the mean duration and severity of ischemia was done. Using only the patients with ischemic events reduced the number included in the analysis, but allowed determination of whether the drug is effective in reducing the magnitude of the events, should they occur. […] For severity (an […] variable, 0-4 scale) and number of events, the Kruskal-Wallis nonparametric test was used. The same comparisons were done with the active treatment groups combined.
6. Ischemic Events--ECG. The analysis of ischemic events indicated by ECG was done using the same methods as the echo events. The time periods analyzed were: (a) baseline (Holter start to infusion start), (b) pre-bypass (infusion start to bypass start), (c) post-bypass (sideclamp off to infusion end), and (d) post-treatment (infusion end to Holter end). […]

[3] = Uric acid monitoring, Phase 3 CABG trial; format: in vivo, human; details: treated patients, data not shown
Source text: The uric acid concentrations of all patients in the study were monitored.

[4] = Plasma AICA riboside concentrations / pharmacokinetics in CABG patients (Phase 2); format: in vivo, human
Protocol: 10. Plasma Levels. […] Individual values and group means were tabulated and drug clearance calculated. Dose proportionality was assessed.
The data are also presented graphically in FIG. 3.

[5] = system: patients undergoing coronary artery bypass graft (CABG) surgery; assay: Ejection fraction and hemodynamics (Phase 2); format: in vivo, human
Protocol: as §1
During the post-operative period through the first post-operative day, morphine and midazolam were used for sedation and analgesia. The cardiovascular medications required were recorded. During this period, continuous ECG monitoring (Holter) was performed for up to 48 hours. Hemodynamic measurements (pulmonary artery pressures and cardiac output) were obtained at 2, 4, 8 and 12 hours (in some cases at 24 and 48 hours) and also whenever clinically indicated.
as §2
9. Election Fraction. Pre-operative and post-operative ejection fractions were measured using different methodologies; therefore, changes could not be analyzed statistically. Group mean injection fractions and pre- and post-CABG are presented and apparent differences between groups were described.
Results for ejection fraction, measured on all patients pre-operatively (by angiography) and at the time of discharge from the intensive care unit (by radionuclide ventriculography) are given in Table 10 below.

[6] = high dose (0.1 mg/kg/min), 0.1 mg/kg
[7] = low dose (0.05 mg/kg/min), 0.05 mg/kg

## NC(=O)c1ncn([C@@H]2O[C@H](CO)[C@@H](O)[C@H]2O)c1N [AICA riboside, 5-amino-1-β-D-ribofuranosyl-imidazole-4-carboxamide]
[1]
  Stability of liquid formulation: variable discoloration
[2]; [6]
  Mean duration of postbypass ECG ischemic episodes: 36 ± 20 min and 36 min
  Ischemic minutes per hour monitored, postbypass: 27 ± 20 min/h
[2]; high dose (0.1 mg/kg/min)
  Incidence of prebypass ECG ischemia: 3%
  Incidence of ECG ischemia (postbypass): 11%
  Incidence of prebypass TEE ischemia: 6%
  Incidence of postbypass TEE ischemia: 24%
  Mean area under the S-T curve (AUC), postbypass ECG ischemia: -52 ± 28 mm-min
[2]; high dose group (0.1 mg/kg/min)
  Incidence of preoperative (baseline) ECG ischemia: 14%
[2]; high dose
  Mean area under the S-T segment: 27±20
[2]; [7]
  Mean duration of postbypass ECG ischemic episodes: 125 ± 80 min and 125 min
  Ischemic minutes per hour monitored, postbypass: 40 ± 15 min/h
[2]; low dose (0.05 mg/kg/min)
  Incidence of prebypass ECG ischemia: 3%
  Incidence of ECG ischemia (postbypass): 22%
  Incidence of prebypass TEE ischemia: 15%
  Incidence of postbypass TEE ischemia: 27%
  Mean area under the S-T curve (AUC), postbypass ECG ischemia: -172 ± 144 mm-min
[2]; low dose group (0.05 mg/kg/min)
  Incidence of preoperative (baseline) ECG ischemia: 14%
[2]; low dose
  Mean area under the S-T segment: 40±15
[2]; patients undergoing CABG surgery
  Effect on postsurgical myocardial ischemia: limits the extent of postsurgical myocardial ischemia
[3]
  Crystalluria: no clinically significant crystalluria
  Plasma uric acid concentrations vs normal range: generally remained in, or close to, the normal range
  Uric acid concentrations, dose relation: clear dose related increase in uric acid concentrations
[4]; 0.05 mg/kg/min
  Steady state plasma concentration: approximately 2.5 μg/ml
[4]; 0.05 mg/kg/min constant infusion, n=40, pre-bypass
  Mean (±SEM) plasma AICA riboside concentration: 2.66 ± 0.30 µg/mL
[4]; 0.05 mg/kg/min, n=40, 1 hour post-infusion
  Mean (±SEM) plasma AICA riboside concentration: 0.32 ± 0.63 µg/mL
[4]; 0.05 mg/kg/min, n=40, end infusion
  Mean (±SEM) plasma AICA riboside concentration: 1.83 ± 0.13 µg/mL
[4]; 0.05 mg/kg/min, n=40, post-bypass
  Mean (±SEM) plasma AICA riboside concentration: 2.49 ± 0.13 µg/mL
[4]; 0.1 mg/kg/min
  Steady state plasma concentration: ~5.0 µg/mL
[4]; 0.10 mg/kg/min constant infusion, n=31, pre-bypass
  Mean (±SEM) plasma AICA riboside concentration: 5.11 ± 0.20 µg/mL
[4]; 0.10 mg/kg/min, n=31, 1 hour post-infusion
  Mean (±SEM) plasma AICA riboside concentration: 0.45 ± 0.03 µg/mL
[4]; 0.10 mg/kg/min, n=31, end infusion
  Mean (±SEM) plasma AICA riboside concentration: 3.67 ± 0.30 µg/mL
[4]; 0.10 mg/kg/min, n=31, post-bypass
  Mean (±SEM) plasma AICA riboside concentration: 5.47 ± 0.19 µg/mL
[4]; CABG patients, 0.05 and 0.1 mg/kg/min infusion
  Kinetics (linearity, dose proportionality): exhibits linear kinetics; also recorded: good dose proportionality
[4]; one hour after infusion terminated
  Plasma concentration as % of steady state level after end of infusion: 10%
[4]; post-bypass
  Change of CLp during post-bypass period: trend for the CLp to increase
[4]; to achieve desired blood concentration levels
  Dose needed in anesthetized patients, % less than in non-anesthetized patients: 20-50%
[5]; 0.05 mg/kg/min group, pre-bypass (pre-operative, LV angiography), placebo 57.6 ± 2.0, p=0.54
  Ejection fraction: 55.0 ± 2.3%
[5]; 0.05 mg/kg/min, post-bypass (radionuclide ventriculography), placebo 56.5 ± 2.3, p=0.28
  Ejection fraction: 59.0 ± 2.0%
[5]; 0.10 mg/kg/min group, pre-bypass (pre-operative, LV angiography), placebo 57.6 ± 2.0, p=0.54
  Ejection fraction: 58.4 ± 2.4%
[5]; 0.10 mg/kg/min, post-bypass (radionuclide ventriculography), placebo 56.5 ± 2.3, p=0.28
  Ejection fraction: 61.3 ± 1.7%
[5]; CABG surgery
  Effect on heart rate and blood pressure: no effects of treatment with AICA riboside were seen on these parameters
[5]; post-operative, not statistically significant
  Ejection fraction vs placebo: higher mean ejection fractions post-bypass than the placebo group; also recorded: trend towards higher ejection fraction in the high dose AICA riboside group
